{"source": "patent US20260284076A1", "about": "“TESTOSTERONE AND DIFLUOROMETHYLORNITHINE COMBINATION THERAPY FOR PROSTATE CANCER” (The Johns Hopkins University, priority 2023, published 2026)", "key": {"[1]": {"system": "hypusinated eIF5A in PCa cell lines", "assay": "Total and hypusinated eIF5A by western blot", "type": "cell-based, human", "text": "(§1) FIG. 5A, FIG. 5B, FIG. 5C, FIG. 5D, and FIG. 5E show: FIG. 5A, MYC expression by IHC in a metastatic tumor biopsy from a patient before and after 3 months of BAT. FIG. 5B, Quantification of MYC protein expression from metastatic tumor biopsies from patients before and after 3 months of BAT color-coded by response (non-responder NR; responder R). […] Vinculin was used as a loading control. FIG. 5D, Principal component analysis of RNA and ATAC sequencing of LNCaP cells treated for 5 days with R1881 10 nM (SPA). […] Vinculin was used as a loading control;\nFIG. 24A. Schematic highlighting generation of hypusinated eIF5A from spermidine. […] Vinculin is used as a loading control. Representative blots of n=2 independent experiments;"}, "LNCaP cells [2]": {"system": "LNCaP cells", "assay": "RNAseq of treated LNCaP cells", "type": "cell-based, human", "conditions": "96 hours", "source_text": "Overlap of differentially expressed transcripts occurring due to treatment as per (FIG. 27A). […] Change in RNA transcript abundance of genes located with the 8q24 topologically associated domain (TAD) in LNCaP cells treated as per (FIG. 27A)."}, "LNCaP cells [3]": {"system": "LNCaP cells", "assay": "Colony formation (clonal survival)", "type": "cell-based, human", "conditions": "with or without R1881 0.5 nM, 96 hours, colonies at 14 days; monohydrochloride, monohydrate", "text": "(§2) FIG. 3A. […] Ns, not significant. FIG. 3B. […] Ns, not significant. FIG. 3C. […] P values by ANOVA;"}, "VCaP cells": {"system": "VCaP cells", "assay": "Colony formation (clonal survival)", "type": "cell-based, human", "conditions": "with or without R1881 0.5 nM, 96 hours, colonies at 14 days; monohydrochloride, monohydrate", "text": "as §2"}, "[4]": {"system": "AMD1 transcript in LNCaP cells", "assay": "AMD1 transcript stability after actinomycin, RT-PCR", "type": "cell-based, human"}, "[5]": {"system": "MYC in LNCaP and VCaP cells", "assay": "MYC expression by western blot, RT-PCR, RNAseq", "type": "cell-based, human", "conditions": "R1881 10 nM, DFMO 5 mM, 96 hours; monohydrochloride, monohydrate", "text": "as §1"}, "[6]": {"conditions": "cited from earlier work"}, "CRPC": {"system": "CRPC", "conditions": "post-abiraterone, pre-chemotherapy setting; cited from earlier work"}, "[7]": {"system": "patients with CRPC progressing on Enza (Cohort A) or Abi (Cohort B)", "type": "in vivo, human", "conditions": "re-exposed to agent progressed on before BAT", "text": "The RESTORE study (NCT02090114) was an NIH sponsored Phase II study designed to assess the safety and efficacy of BAT in patients (n=30 per cohort) with CRPC progressing on Enza (Cohort A) or Abi (Cohort B), FIG. 18A (34,39). The primary endpoint of the first part of the study was to assess PSA response to BAT. Secondary endpoints included objective response, safety, and quality of life. The second part of the study was to determine in BAT could re-sensitize patients to repeat exposure to second line therapy that patients were progressing on prior to receiving BAT. Thus, patients progressing on Enza were re-exposed to Enza after BAT and similarly for Abi. Both arms of this study met the primary endpoint. PSA50 response to BAT was 30% in patient's post-Enza and 18% post-Abi, FIG. 18B. […] Overall duration of response to BAT and duration of response to re-exposure was longer in the post-Enza vs. post-Abi cohort. The PSAso response to re-exposure to Enza was 71% vs. only 21% for patients re-exposed to Abi, FIG. 19B (7). A third cohort was later added (Cohort C) for patients progressing on ADT alone. Overall, 90 patients were treated on this study over a 4-year period (2014-2018)."}, "human T lymphocytes": {"system": "human T lymphocytes", "conditions": "CD3/CD28-stimulated cells, 24 hours, 5 donors", "procedure": "Protein expression of ODC and AR by western blot of human T cells cultured for 24 hours with vehicle control (EtOH 0.1%), SPA, or enzalutamide (ENZA; 10 μM) in the presence of no stimulation or CD3- and CD28-stimulation with dynabeads. Vinculin is used a loading control. FIG. 22J. Quantification of protein expression of ODC by western blot as per (FIG. 22I), displaying data from independent experiments of 5 different donors with indicated sex. P values by unpaired 2-tailed t test;\nTo assess whether AR regulates expression of polyamine synthesis enzymes in cells beyond prostate, we isolated human T lymphocytes from peripheral blood of 5 donors, treated unstimulated or CD3/CD28-stimulated cells with vehicle control, SPA, or the AR inhibitor enzalutamide for 24 hours, and measured ODC."}, "[8]": {"system": "chronically castrated patients with rising PSA and CRPC", "assay": "Pilot study of BAT with oral etoposide, then second line therapy post-BAT", "type": "in vivo, human", "conditions": "post-BAT", "text": "Based on the preclinical results and potential mechanisms for growth inhibition that include androgen-induced double strand breaks and stabilization of AR preventing relicensing, we have conducted a pilot study evaluating the efficacy and safety of pharmacologic doses of testosterone to produce high dose T levels in conjunction with oral etoposide in chronically castrated patients with rising PSA and CRPC (37). Patients who had been continuously castrate for more than one year with minimal metastatic disease burden (≤5 total bone metastases and ≤10 total sites of metastases) and/or rising PSA were eligible. To achieve rapid cycling between high dose and near castrate serum T (i.e., BAT) patients received intramuscular injection of 400 mg testosterone cypionate every 28 days. For the first 3 cycles of therapy patients received BAT plus oral etoposide 100 mg po/day days 1-14 of a 28-day cycle. After 3 cycles PSA response and objective response were assessed. Those patients with a PSA that was declining from peak levels and no objective evidence of disease progression or worsening pain were continued on therapy. Given the toxicity associated with etoposide and the lack of clinical response in an earlier trial (38), patients who responded after 3 cycles of testosterone plus etoposide were continued on testosterone alone based on protocol amendment."}, "CRPC post docetaxel": {"system": "CRPC post docetaxel", "conditions": "post-docetaxel setting; cited from earlier work"}, "[9]": {"system": "asymptomatic patients with CRPC progressing on Abi", "assay": "TRANSFORMER randomized Phase II study, BAT vs. Enza with crossover", "type": "in vivo, human", "method": "The TRANSFORMER study (NCT02286921) was a DOD-sponsored randomized Phase II study designed to compare the efficacy of BAT vs. Enza in asymptomatic patients with CRPC progressing on Abi, FIG. 19A (2). The study was conducted at 17 academic centers across the US. The study was coordinated by the Prostate Cancer Disease Group clinical research team at Johns Hopkins, who performed regulatory oversight, study/site monitoring, and data analyses. From 2015-2018, 195 patients underwent 1:1 randomization to either standard dose Enza (n=101) or BAT (n=94) at 400 mg IM every 28 days. The primary endpoint was clinical/radiographic PFS. At time of progression, patients were given the option to crossover to the alternate therapy. The trial was designed to show a 50% improvement in the primary endpoint for BAT vs. Enza. […] Objective response was 24.4% for BAT and 4.2% for Enza (p=0.067). Best PSA50 was 26.4% for BAT and 25.5% for Enza (p=0.697).\nAt time of progression, 46 (49%) of patients on the Enza arm crossed over to receive BAT and 34 (33.7%) crossed over from BAT to receive Enza and were available for analysis. Remarkably, the PSAso response for patients who received Enza after BAT was 72.7% compared to 25.5% for patients receiving Enza immediately after Abi, FIG. 19D. Objective response in the Enza post-BAT patients was 28.6% compared to 4.2% post-Abi, FIG. 19B. […] The logical extension of these findings and the hypothesis of this proposal is that patients are likely to respond again to further repeat cycles of BAT and Enza, but this treatment strategy has yet to be explored in the clinical trial setting."}, "[10]": {"system": "metastatic CRPC, pre-chemotherapy setting", "conditions": "cited from earlier work"}}, "note": "“Also recorded” adds a separate entry of the source. Structures can show the parent of a compound that is named as a salt."}
{"smiles": "NCCCC(N)(C(=O)O)C(F)F", "note": "(stereo not shown) [DFMO, 2-(difluoromethyl)-ornithine, monohydrochloride, monohydrate]", "values": [{"measurement": "eIF5A hypusination", "setting": "[1]", "value": "marked reduction"}, {"measurement": "differentially expressed transcripts vs VEH", "setting": "LNCaP cells [2]", "value": "fewer"}, {"measurement": "clonal survival / colony formation", "setting": "LNCaP cells [3]", "value": "decreased colony formation"}, {"measurement": "clonal survival / colony formation", "setting": "VCaP cells", "value": "inhibited clonal survival to a greater extent in R1881-treated cells than vehicle control-treated cells; also recorded: decreased colony formation"}, {"measurement": "half-life of AMD1 transcript", "setting": "[4]; 96 hours treatment then actinomycin 5 μg/mL", "value": "> 8", "unit": "h"}, {"measurement": "stability of AMD1 transcript", "setting": "[4]; monohydrochloride, monohydrate", "value": "markedly increased stability; also recorded: stabilizes"}, {"measurement": "MYC expression", "setting": "[5]", "value": "reduced; also recorded: enhances downregulation of MYC by SPA"}, {"measurement": "side-effects of high doses", "setting": "[6]; high doses", "value": "reversible ototoxicity and myelosuppression"}, {"measurement": "chemoprevention trials of breast and cervix cancer", "setting": "[6]; human, in vivo", "value": "negative"}, {"measurement": "doses not consistently associated with ototoxicity and myelosuppression", "setting": "[6]; human, in vivo", "value": "less than 1 g/m2/d"}, {"measurement": "prostate polyamine levels and prostate growth", "setting": "[6]; over one year", "value": "can reduce prostate polyamine levels and the rate of growth of the prostate"}]}
{"smiles": "CNC(=O)c1ccc(N2C(=S)N(c3ccc(C#N)c(C(F)(F)F)c3)C(=O)C2(C)C)cc1F", "note": "[Enzalutamide, 4-{3-[4-cyano-3-(trifluoromethyl)phenyl]-5,5dimethyl-4-oxo-2-sulfanylideneimidazolidin-1-yl}-2-fluoro-N-methylbenzamide]", "values": [{"measurement": "median rPFS", "setting": "CRPC", "value": "≤ 6", "unit": "months"}, {"measurement": "PSA50 response to re-exposure (re-challenge) post-BAT", "setting": "[7]", "value": 71, "unit": "%"}, {"measurement": "ODC protein", "setting": "human T lymphocytes", "value": "decreased ODC in all donors"}, {"measurement": "patients with >50% PSA decline on second line therapy", "setting": "[8]", "value": "3/4"}, {"measurement": "PSA decline upon re-challenge", "setting": "[8]; agent previously progressed on", "value": 53.2, "unit": "%"}, {"measurement": "improvement in survival", "setting": "CRPC post docetaxel", "value": "approximately 5 months"}, {"measurement": "PSA50 response", "setting": "[9]; Enza after BAT (crossover), listed as Enza", "value": 72.7, "unit": "%"}, {"measurement": "PSA50 response", "setting": "[9]; Enza after BAT (crossover), listed as enzalutamide", "value": 78, "unit": "%"}, {"measurement": "Time to PSA progression", "setting": "[9]; Enza immediately post-Abi, without prior BAT", "value": 3.8, "unit": "months"}, {"measurement": "Objective response", "setting": "[9]; Enza post-BAT", "value": 28.6, "unit": "%"}, {"measurement": "Time to PSA progression", "setting": "[9]; Enza post-BAT", "value": 10.9, "unit": "months"}, {"measurement": "overall survival", "setting": "[9]; enzalutamide after prior BAT", "value": 37, "unit": "months"}, {"measurement": "overall survival", "setting": "[9]; enzalutamide without prior BAT", "value": 29, "unit": "months"}, {"measurement": "PSA50 response", "setting": "[9]; initial treatment immediately after Abi, no prior crossover, listed as Enza", "value": 25.5, "unit": "%"}, {"measurement": "PSA50 response", "setting": "[9]; initial treatment immediately after Abi, no prior crossover, listed as enzalutamide", "value": 25, "unit": "%"}, {"measurement": "fold increase in time to PSA progression on Enza", "setting": "[9]; post-BAT vs immediately post-Abi", "value": "~3", "unit": "fold"}, {"measurement": "clinical/radiographic PFS", "setting": "[9]; randomized arms", "value": 5.72, "unit": "m"}, {"measurement": "Objective response", "setting": "[9]; randomized arms, post-Abi", "value": 4.2, "unit": "%"}, {"measurement": "hazard ratio, overall survival vs placebo", "setting": "[10]; 95% CI 0.60 to 0.84", "value": 0.71}, {"measurement": "median overall survival", "setting": "[10]; PREVAIL, enzalutamide group", "value": 32.4, "unit": "months"}, {"measurement": ">50% decline PSA (%)", "setting": "[10]; PREVAIL", "value": 78, "unit": "%"}, {"measurement": "PSA PFS", "setting": "[10]; PREVAIL", "value": 11.2}, {"measurement": "TIP (m)", "setting": "[10]; PREVAIL", "value": 20, "unit": "m"}]}
